A word on the IC50: it is the point on the concentration scale where inhibition reaches its midpoint.

In patent US9187472B2 (AbbVie Inc., priority 2012, dated 2015) one finds IC50 data, which are given here for 25 compounds.

The test system of assay [1] is PC3 cells. As to the kind of experiment: NAMPT Cell Proliferation Assay. In kind it is cell-based. To be noted: Homo sapiens, PC-3, 120 h, 5 days incubation, cell viability by Cell Titer Glo. The essentials: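 IC50 values derive from sigmoidal dose-response fits of percent inhibition of PC3 viability, measured by luminescence after 5 days of compound treatment. Cells (500/well, RPMI containing 10% heat-inactivated FBS) are allowed to attach overnight, and compounds are tested at 10-fold dilutions between 10 μM and 1×10^−5 μM.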
For orientation: Cellular ATP, detected with luciferase, serves as a proxy for viable cell number.

Assay [2] addresses NAMPT (human, recombinant, C-terminally His-tagged) (Homo sapiens, UniProt P43490). As to the kind of experiment: Time-Resolved Fluorescence Resonance Energy Transfer (TR-FRET) Binding Assay of NAMPT. To be noted: without substrates; 6.8 nM NAMPT, 200 nM probe, 3 hours equilibration. The method in brief: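 Competitive binding against an Oregon Green 488 tracer (200 nM), 6.8 nM His-tagged enzyme, 1 nM Tb antibody, 2% DMSO, 3 h at RT. IC50 derived from TR-FRET ratios.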
Background: TR-FRET usually uses a lanthanide donor and a delayed reading to cut background.

Assay [3] addresses NAMPT (Homo sapiens, UniProt P43490). As to the kind of experiment: TR-FRET Binding Assay of NAMPT with PRPP. To be noted: with 200 μM PRPP and 2.5 mM ATP; 2 nM NAMPT, 2 nM probe, 16 hours equilibration. The essentials:
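Read-out is TR-FRET after a 16 h equilibration allowing possible compound modification by the enzyme. Final mix: 2 nM NAMPT, 2 nM probe, 1 nM Tb-anti-His antibody, 200 μM PRPP, 2.5 mM ATP, 2% DMSO.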

Molecules are shown by their SMILES.

Sequence of NAMPT (P43490 whole entry): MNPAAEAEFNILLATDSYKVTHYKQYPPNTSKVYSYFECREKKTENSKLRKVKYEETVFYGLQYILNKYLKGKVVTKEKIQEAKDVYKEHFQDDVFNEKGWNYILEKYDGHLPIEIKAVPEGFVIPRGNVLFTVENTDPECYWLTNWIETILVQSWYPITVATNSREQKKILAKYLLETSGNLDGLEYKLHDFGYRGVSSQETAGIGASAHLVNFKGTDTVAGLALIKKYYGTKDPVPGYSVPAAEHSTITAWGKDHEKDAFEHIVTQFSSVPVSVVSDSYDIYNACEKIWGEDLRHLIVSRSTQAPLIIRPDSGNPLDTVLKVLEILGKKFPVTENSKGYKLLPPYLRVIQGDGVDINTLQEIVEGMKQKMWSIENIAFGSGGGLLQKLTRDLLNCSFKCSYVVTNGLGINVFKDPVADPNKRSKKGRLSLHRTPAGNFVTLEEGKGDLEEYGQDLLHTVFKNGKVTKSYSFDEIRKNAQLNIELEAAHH
Sequence of NAMPT (human, recombinant, C-terminally His-tagged) (P43490 whole entry): as above

`CC(C)C(=O)N1CC(c2ccc(C(=O)NCc3ccn4ccnc4c3)cc2)C1` [Example 490, N-(imidazo[1,2-a]pyridin-7-ylmethyl)-4-[1-(2-methylpropanoyl)azetidin-3-yl]benzamide]: the IC50 was found to be 0.0899 µM in assay [1], 0.753 µM in assay [2] and 0.000267 µM in assay [3].
For `O=C(NCc1ccn2ccnc2c1)c1ccc(C2CCN(C(=O)C3COCCO3)CC2)cc1` (stereo not drawn) [Example 233, 4-[1-(1,4-dioxan-2-ylcarbonyl)piperidin-4-yl]-N-(imidazo[1,2-a]pyridin-7-ylmethyl)benzamide], in that order: 0.00937 µM, 0.495 µM and 0.000401 µM.
For `CC(C)(C)OC(=O)N1CCC(c2ccc(C(=O)NCc3cn4ccnc4cn3)cc2)CC1` [Example 678, tert-butyl 4-{4-[(imidazo[1,2-a]pyrazin-6-ylmethyl)carbamoyl]phenyl}piperidine-1-carboxylate], the IC50 in assay [1] was 0.0151 µM; in assay [2], 0.0412 µM; in assay [3], 0.00023 µM.
Consider `CC(C)[C@H]1COC(=O)N1c1ncc(C(=O)NCc2ccn3ccnc3c2)s1` [Example 185, N-(imidazo[1,2-a]pyridin-7-ylmethyl)-2-[(4S)-2-oxo-4-(propan-2-yl)-1,3-oxazolidin-3-yl]-1,3-thiazole-5-carboxamide], for which the IC50 in assay [1] was 5.05 µM; in assay [2] it was > 10 µM; in assay [3], 0.00186 µM.
In the same order, the values of `O=C(NCc1ccn2ccnc2c1)c1ccc(C2CN(C(=O)CC3CCCC3)C2)cc1` [Example 629, 4-[1-(cyclopentylacetyl)azetidin-3-yl]-N-(imidazo[1,2-a]pyridin-7-ylmethyl)benzamide] are 0.0652 µM, 0.23 µM and 0.000643 µM.
For `O=C(NCc1ccn2ccnc2c1)c1ccc(C2CN(C(=O)CC3CCCCC3)C2)cc1` [Example 657, 4-[1-(cyclohexylacetyl)azetidin-3-yl]-N-(imidazo[1,2-a]pyridin-7-ylmethyl)benzamide], in that order: 0.036 µM, 0.232 µM and 0.000589 µM.
In the same order, the values of `Cc1ccsc1C(=O)N1CCC(c2ccc(C(=O)NCc3ccn4ccnc4c3)s2)C1` (stereo not drawn) [Example 793, N-(imidazo[1,2-a]pyridin-7-ylmethyl)-5-{1-[(3-methylthiophen-2-yl)carbonyl]pyrrolidin-3-yl}thiophene-2-carboxamide] are 0.00102 µM, 0.0231 µM and 0.000398 µM.
Regarding `O=C(NC1(c2ccc(C(=O)NCc3ccn4ccnc4c3)s2)CCC1)c1ccccc1` [Example 471, 5-[1-(benzoylamino)cyclobutyl]-N-(imidazo[1,2-a]pyridin-7-ylmethyl)thiophene-2-carboxamide], the figures for the IC50 in assay [1], in assay [2] and in assay [3] were 6.51 µM, 3.44 µM and 0.000471 µM, respectively.
Take `CC(C)C(=O)N1CCC(Oc2ccc(NC(=O)NCc3ccn4ccnc4c3)cc2)CC1` [Example 442, 1-(imidazo[1,2-a]pyridin-7-ylmethyl)-3-(4-{[1-(2-methylpropanoyl)piperidin-4-yl]oxy}phenyl)urea]: the values for the half-maximal inhibitory concentration (IC50) in assay [1], in assay [2] and in assay [3] were 0.0707 µM, 0.301 µM and 0.0002 µM, respectively.
In the same order, the values of `O=C(NCc1ccn2ccnc2c1)c1ccc(-c2cnn(CC3CCCOC3)c2)s1` (stereo not drawn) [Example 253, N-(imidazo[1,2-a]pyridin-7-ylmethyl)-5-[1-(tetrahydro-2H-pyran-3-ylmethyl)-1H-pyrazol-4-yl]thiophene-2-carboxamide] are 0.000702 µM, 0.0144 µM and 0.000229 µM.
In the same order, the values of `CC(C)S(=O)(=O)N1CCC(c2ccc(C(=O)NCc3cn4ccnc4cn3)cc2)CC1` [Example 817, N-(imidazo[1,2-a]pyrazin-6-ylmethyl)-4-[1-(propan-2-ylsulfonyl)piperidin-4-yl]benzamide] are 0.00927 µM, 0.0658 µM and 0.0016 µM.
In the same order, the values of `O=C(Nc1ccc(C2CCN(C(=O)c3ccccc3)CC2)cc1)Nc1ccc2nccn2c1` [Example 112, 1-[4-(1-benzoylpiperidin-4-yl)phenyl]-3-imidazo[1,2-a]pyridin-6-ylurea] are 0.00696 µM, 0.0465 µM and 0.000169 µM.
Turning to `O=C(NCc1ccn2ccnc2c1)c1ccc(C2CCN(C(=O)c3cccc(F)c3)C2)s1` (stereo not drawn) [Example 762, 5-[1-(3-fluorobenzoyl)pyrrolidin-3-yl]-N-(imidazo[1,2-a]pyridin-7-ylmethyl)thiophene-2-carboxamide], the figures for the IC50 in assay [1], in assay [2] and in assay [3] were 0.00112 µM, 0.0301 µM and 0.000506 µM, respectively.
For `O=C(NCc1ccc2nccn2c1)c1ccc(C2=CCN(C(=O)CC3CCCC3)CC2)cc1` [Example 97, 4-[1-(cyclopentylacetyl)-1,2,3,6-tetrahydropyridin-4-yl]-N-(imidazo[1,2-a]pyridin-6-ylmethyl)benzamide], in that order: 0.00455 µM, 0.109 µM and 0.000333 µM.
In the same order, the values of `O=C(NCc1ccn2ccnc2c1)c1ccc(C2CCN(C(=O)c3ccc(OC(F)(F)F)cc3)CC2)cc1` [Example 704, N-(imidazo[1,2-a]pyridin-7-ylmethyl)-4-{1-[4-(trifluoromethoxy)benzoyl]piperidin-4-yl}benzamide] are 0.0915 µM, 0.503 µM and 0.000777 µM.
On to `O=C(NCc1ccn2ccnc2c1)c1ccc(C2CCN(C(=O)[C@H]3CCOC3)C2)cc1` (stereo partly drawn) [Example 375, N-(imidazo[1,2-a]pyridin-7-ylmethyl)-4-{1-[(3S)-tetrahydrofuran-3-ylcarbonyl]pyrrolidin-3-yl}benzamide], for which the values for the half-inhibitory concentration (IC50) in assay [1], in assay [2] and in assay [3] were > 10 µM, 0.986 µM and 0.000241 µM, respectively.
For `CC(C)(O)C(=O)N1CC(c2ccc(C(=O)NCc3ccn4ccnc4c3)cc2)C1` [Example 550, 4-[1-(2-hydroxy-2-methylpropanoyl)azetidin-3-yl]-N-(imidazo[1,2-a]pyridin-7-ylmethyl)benzamide], in that order: 0.174 µM, 0.762 µM and 0.000427 µM.
For `O=C(NCc1ccn2ccnc2c1)c1ccc(C2CCN(C(=O)CC3CCOCC3)CC2)s1` [Example 262, N-(imidazo[1,2-a]pyridin-7-ylmethyl)-5-[1-(tetrahydro-2H-pyran-4-ylacetyl)piperidin-4-yl]thiophene-2-carboxamide], in that order: 0.00187 µM, 0.00367 µM and 0.000221 µM.
For `CC(C)(O)C(=O)N1CC[C@H](Oc2ccc(C(=O)NCc3ccn4ccnc4c3)cc2)C1` [Example 348, 4-{[(3S)-1-(2-hydroxy-2-methylpropanoyl)pyrrolidin-3-yl]oxy}-N-(imidazo[1,2-a]pyridin-7-ylmethyl)benzamide], in that order: > 10 µM, > 10 µM and 0.00152 µM.
Take `O=C(CCC1CCCO1)Nc1ccc(C(=O)NCc2ccn3ccnc3c2)cc1` (stereo not drawn) [Example 210, N-(imidazo[1,2-a]pyridin-7-ylmethyl)-4-{[3-(tetrahydrofuran-2-yl)propanoyl]amino}benzamide]: the values for the 50% inhibitory concentration (IC50) in assay [1], in assay [2] and in assay [3] were 0.398 µM, 0.469 µM and 0.000363 µM, respectively.
For `CC1(Cn2cc(-c3ccc(C(=O)NCc4ccc5ncnn5c4)s3)cn2)CCOCC1` [Example 622, 5-{1-[(4-methyltetrahydro-2H-pyran-4-yl)methyl]-1H-pyrazol-4-yl}-N-([1,2,4]triazolo[1,5-a]pyridin-6-ylmethyl)thiophene-2-carboxamide], in that order: 0.00706 µM, 0.0294 µM and 0.00236 µM.
In the same order, the values of `CC1(C(=O)N2CC(c3ccc(C(=O)NCc4ccn5ccnc5c4)cc3)C2)CC1` [Example 632, N-(imidazo[1,2-a]pyridin-7-ylmethyl)-4-{1-[(1-methylcyclopropyl)carbonyl]azetidin-3-yl}benzamide] are 0.0323 µM, 0.27 µM and 0.000698 µM.
`CCC(=O)N1CCC(c2ccc(C(=O)NCc3ccn4ccnc4c3)cc2)CC1` [Example 532, N-(imidazo[1,2-a]pyridin-7-ylmethyl)-4-(1-propanoylpiperidin-4-yl)benzamide]: the concentration for half-maximal inhibition (IC50) came to 0.0927 µM in assay [1], 0.338 µM in assay [2] and 0.000178 µM in assay [3].
In the same order, the values of `O=C(NCc1ccn2ccnc2c1)c1ccc(C2CCN(C(=O)c3ccccc3F)C2)s1` (stereo not drawn) [Example 776, 5-[1-(2-fluorobenzoyl)pyrrolidin-3-yl]-N-(imidazo[1,2-a]pyridin-7-ylmethyl)thiophene-2-carboxamide] are 0.0021 µM, 0.0215 µM and 0.000169 µM.
In the same order, the values of `O=C(NCc1ccn2ccnc2c1)c1cnc(C2CCN(C(=O)c3ccccc3)C2)s1` (stereo not drawn) [Example 807, 2-(1-benzoylpyrrolidin-3-yl)-N-(imidazo[1,2-a]pyridin-7-ylmethyl)-1,3-thiazole-5-carboxamide] are 0.1 µM, 0.628 µM and 0.000509 µM.
